≈ marks a conversion by molar mass, not a printed value.
What was measured:
[1] = system: Plasmodium falciparum; experiment: Antiplasmodial activity after 48 hrs against chloroquine-resistant Plasmodium falciparum FcM29-Cameroon by [3H]hypoxanthine uptake; type: functional, organism-based
[2] = system: Candida albicans; experiment: Antifungal activity against Candida albicans ATCC 90028 after 48 hrs; type: functional; details: ATCC 90028, 48 h
[3] = system: Candida albicans; experiment: Antifungal activity against Candida albicans ATCC 90028 after 24 hrs; type: functional; details: ATCC 90028, 24 h

Compound	IC50 [1]	MIC [2]	MIC [3]
C#CCOC/C=C(\C)CCC=C(C)C	122 µM	> 200 µg/mL	> 200 µg/mL
C#CCO[C@@](C)(C=C)CCC=C(C)C	39 µM	> 200 µg/mL	> 200 µg/mL
C=CC1=C(C)[C@@H]2CC[C@@H](C)C[C@H]2OC1	> 100 µM	> 200 µg/mL	> 200 µg/mL
CC(C)=CCCC(C)CCO (stereo not drawn) [CITRONELLOL]	192 µM	> 200 µg/mL	> 200 µg/mL
C#CCO[C@@H]1C[C@H](C)CC[C@H]1C(=C)C	31 µM	> 200 µg/mL	> 200 µg/mL
C=C(C)[C@@H]1CC=C(CO)CC1 [PERILLYL ALCOHOL]	184 µM	> 200 µg/mL	> 200 µg/mL
C#CCOCC1=CC[C@@H](C(=C)C)CC1	33 µM	> 200 µg/mL	> 200 µg/mL
CC1CC(=O)O[C@@H]2C[C@H](C)CC[C@@H]12 (stereo partly drawn)	470 µM	> 200 µg/mL	> 200 µg/mL
C=C(C)[C@@H]1CC[C@@H](C)C[C@H]1O [ISOPULEGOL]	282 µM	> 200 µg/mL	> 200 µg/mL
C=CC(C)(O)CCC=C(C)C (stereo not drawn) [LINALOOL]	519 µM	> 200 µg/mL	> 200 µg/mL
C=C(C)[C@H]1CCC23COC=CC2C3C1 (stereo partly drawn)	> 100 µM	> 200 µg/mL	> 200 µg/mL
CC(C)=CCC[C@@]1(C)OCC2=CC(=O)CC21 (stereo partly drawn)	1.8 µM	> 200 µg/mL	> 200 µg/mL
C=C(C)[C@H]1CC=C(C)CC1 [D-LIMONENE]	66 µM	> 200 µg/mL	> 200 µg/mL
Nc1nc(=O)[nH]cc1F [FLUCYTOSINE]		0.75 µg/mL (≈ 5.81 µM)	
C[C@@H]1CC[C@H]2[C@@H](C)C(=O)O[C@@H]3O[C@@]4(C)CC[C@@H]1[C@]32OO4 [ARTEMISININ]	0.007 µM	> 200 µg/mL	> 200 µg/mL
CCN(CC)CCCC(C)Nc1ccnc2cc(Cl)ccc12 (stereo not drawn) [CHLOROQUINE]		> 200 µg/mL	> 200 µg/mL
CC(C)=CCC/C(C)=C/CO [GERANIOL]	52 µM	> 200 µg/mL	> 200 µg/mL

— ChEMBL document CHEMBL1137552, “Modifications of the chemical structure of terpenes in antiplasmodial and antifungal drug research” (Bioorg Med Chem Lett, 2007)
